The source of these data is ChEMBL document CHEMBL2034850, “Radiosynthesis of a ¹⁸F-labeled 2,3-diarylsubstituted indole via McMurry coupling for functional characterization of cyclooxygenase-2 (COX-2) in vitro and in vivo” (Bioorg Med Chem, 2012).

Structures are written as SMILES.

In data set [1] the test system is HT-29. Nature of the data set: Cellular uptake in human HT-29 spheroids of diameter 600+/-10 um assessed per mg of protein at 0.4 MBq after 4 hrs by gamma counting. The note with it: ht-29, 4 h. It is filed as ADME, cell-based.
Data set [2] deals with HT-29. The note with it: human, ht-29, 4 h.
Description: Cellular uptake in human HT-29 monolayers assessed per mg of protein at 0.4 MBq after 4 hrs by gamma counting
The test system of data set [3] is HT-29. Description: Cellular uptake in human HT-29 spheroids of diameter 300+/-10 um assessed per mg of protein at 0.4 MBq after 4 hrs by gamma counting. It is filed as ADME, cell-based. The note with it: ht-29, 4 h.

With `O=[N+]([O-])c1nccn1CC(O)C[18F]` (stereo not drawn) [[18F]FLUOROMISONIDAZOLE], the Drug uptake in the data set on HT-29 [1] stood at 9.86 %ID; in the data set on HT-29 [2], 1.03 %ID; in the data set on HT-29 [3], 1.17 %ID.
